Experimental findings from patent US20080009418A1, “Selective Inhibitors” (Alchemia LTD., priority 2004, published 2008) are described below.

Details in all cases: compound at 10 μM
One assay addresses T1, Human Melanocortin (MC4) (Homo sapiens, UniProt P32245).
T1 construct: purchased Perkin Elmer Biosignal
As to the kind of experiment: Radioligand binding, human melanocortin MC4 membranes, FlashPlate, [125I]-NDP-αMSH. The method in brief:
(§1)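 Cloned human receptor membranes were coated onto FlashPlate wells and incubated with radioligand and compound (added from a 0.5 mM DMSO daughter plate) for 1 hour at room temperature in the dark. Scintillation counting gave percent inhibition, with DMSO defining total and reference ligand defining non-specific binding.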

The next assay deals with T2, Human κ-Opioid (KOP) (Homo sapiens, UniProt P41145).
T2 construct: purchased Perkin Elmer Biosignal
T2 sequence (P41145 whole entry): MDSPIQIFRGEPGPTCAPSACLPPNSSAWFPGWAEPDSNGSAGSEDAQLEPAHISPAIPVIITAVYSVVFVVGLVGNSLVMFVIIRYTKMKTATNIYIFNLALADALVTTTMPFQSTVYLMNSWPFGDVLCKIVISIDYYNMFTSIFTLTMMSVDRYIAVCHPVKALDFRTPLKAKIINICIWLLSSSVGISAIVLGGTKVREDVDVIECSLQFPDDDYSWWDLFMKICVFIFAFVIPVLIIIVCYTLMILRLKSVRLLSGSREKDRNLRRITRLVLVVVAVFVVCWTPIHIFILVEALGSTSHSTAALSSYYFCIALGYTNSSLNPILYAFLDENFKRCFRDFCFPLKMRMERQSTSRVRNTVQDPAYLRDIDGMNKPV
As to the kind of experiment: Radioligand binding, human κ-opioid (KOP) membranes, filtration, [3H]-Diprenorphine. In short, it runs like this: (§2)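 Membranes from cloned human receptors were incubated with compound and radioligand for 1 hour at room temperature. Bound ligand was collected on 0.3% PEI-soaked filters, washed with cold 50 mM Tris-HCl pH 7.4, and counted by scintillation. Percent inhibition was computed against DMSO totals and reference-ligand nonspecific wells.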

A further assay addresses T3, Human melanocortin (MC5) (Homo sapiens, UniProt P33032).
T3 construct: purchased Perkin Elmer Biosignal
As to the kind of experiment: Radioligand binding, human melanocortin MC5 membranes, FlashPlate, [125I]-NDP-αMSH. The method in brief:
as §1

In assay [1] the target is T4, Human melanin-concentrating hormone (MCH1) (Homo sapiens, UniProt Q99705).
T4 construct: purchased Perkin Elmer Biosignal
T4 sequence (Q99705 whole entry): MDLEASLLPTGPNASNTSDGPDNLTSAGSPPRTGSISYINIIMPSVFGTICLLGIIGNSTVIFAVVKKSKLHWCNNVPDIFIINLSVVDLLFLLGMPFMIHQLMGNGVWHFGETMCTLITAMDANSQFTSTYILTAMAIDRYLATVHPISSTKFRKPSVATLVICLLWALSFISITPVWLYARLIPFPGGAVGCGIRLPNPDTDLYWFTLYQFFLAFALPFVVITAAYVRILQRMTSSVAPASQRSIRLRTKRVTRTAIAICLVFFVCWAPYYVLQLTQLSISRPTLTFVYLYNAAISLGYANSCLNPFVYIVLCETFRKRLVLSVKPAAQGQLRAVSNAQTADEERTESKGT
As to the kind of experiment: Radioligand binding, human melanin-concentrating hormone MCH1 membranes, FlashPlate, [125I]-S36057. In short, it runs like this: as §1

A further assay deals with T5, Human neurokinin (NK1) (Homo sapiens, UniProt P25103).
T5 construct: purchased Perkin Elmer Biosignal
T5 sequence (P25103 whole entry): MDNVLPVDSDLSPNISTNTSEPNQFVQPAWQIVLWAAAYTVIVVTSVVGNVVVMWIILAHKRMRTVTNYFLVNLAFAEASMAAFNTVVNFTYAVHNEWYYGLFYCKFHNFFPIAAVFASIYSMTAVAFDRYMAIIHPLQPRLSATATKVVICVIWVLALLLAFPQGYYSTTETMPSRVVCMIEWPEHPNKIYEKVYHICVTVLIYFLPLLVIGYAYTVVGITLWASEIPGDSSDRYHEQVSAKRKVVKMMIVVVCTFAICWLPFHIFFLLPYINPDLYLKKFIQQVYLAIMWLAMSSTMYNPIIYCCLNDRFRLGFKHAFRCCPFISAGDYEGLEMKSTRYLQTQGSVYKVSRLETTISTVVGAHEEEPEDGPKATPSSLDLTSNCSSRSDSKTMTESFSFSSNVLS
As to the kind of experiment: Radioligand binding, human neurokinin NK1 membranes, filtration, [125I]-Substance P. The method in brief: as §2

A further assay addresses T6, Human μ-opioid (MOP) (Homo sapiens, UniProt P35372).
T6 construct: purchased Perkin Elmer Biosignal
As to the kind of experiment: Radioligand binding, human μ-opioid (MOP) membranes, FlashPlate, [3H]-Naloxone. In short, it runs like this:
as §1

The target of the next assay is T7, Human Melanocortin (MC3) (Homo sapiens, UniProt P41968).
T7 construct: purchased Perkin Elmer Biosignal
T7 sequence (P41968 whole entry): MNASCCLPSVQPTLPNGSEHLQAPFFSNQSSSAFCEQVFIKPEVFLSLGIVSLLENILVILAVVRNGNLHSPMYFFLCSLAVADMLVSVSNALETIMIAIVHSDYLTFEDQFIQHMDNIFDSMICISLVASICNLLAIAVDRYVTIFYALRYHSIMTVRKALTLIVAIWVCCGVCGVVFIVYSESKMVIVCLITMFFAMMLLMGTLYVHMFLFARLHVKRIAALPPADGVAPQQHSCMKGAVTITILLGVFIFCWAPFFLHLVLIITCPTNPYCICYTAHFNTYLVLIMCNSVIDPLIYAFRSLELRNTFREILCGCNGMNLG
As to the kind of experiment: Radioligand binding, human melanocortin MC3 membranes, FlashPlate, [125I]-NDP-αMSH. The method in brief:
as §1

In assay [2] the target is T8, Human neuropeptide Y (NPY-Y1) (Homo sapiens, UniProt P25929).
T8 construct: purchased Perkin Elmer Biosignal
T8 sequence (P25929 1-384): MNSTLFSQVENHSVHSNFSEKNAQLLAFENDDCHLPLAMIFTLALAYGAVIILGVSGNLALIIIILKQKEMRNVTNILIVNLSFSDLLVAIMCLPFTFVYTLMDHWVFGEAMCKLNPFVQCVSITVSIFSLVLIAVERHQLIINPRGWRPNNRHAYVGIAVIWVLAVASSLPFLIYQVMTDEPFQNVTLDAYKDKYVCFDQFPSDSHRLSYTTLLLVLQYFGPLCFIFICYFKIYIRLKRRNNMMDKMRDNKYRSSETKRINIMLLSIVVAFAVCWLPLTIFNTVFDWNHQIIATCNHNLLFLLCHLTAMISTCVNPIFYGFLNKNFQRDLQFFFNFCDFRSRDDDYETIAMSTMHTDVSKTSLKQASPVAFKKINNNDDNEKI
As to the kind of experiment: Radioligand binding, human neuropeptide Y NPY-Y1 membranes, FlashPlate, [125I]-PYY. The method in brief: as §1

The target of a further assay is T9, Human δ-opioid (DOP) (Homo sapiens, UniProt P41143).
T9 construct: purchased Perkin Elmer Biosignal
T9 sequence (P41143 whole entry): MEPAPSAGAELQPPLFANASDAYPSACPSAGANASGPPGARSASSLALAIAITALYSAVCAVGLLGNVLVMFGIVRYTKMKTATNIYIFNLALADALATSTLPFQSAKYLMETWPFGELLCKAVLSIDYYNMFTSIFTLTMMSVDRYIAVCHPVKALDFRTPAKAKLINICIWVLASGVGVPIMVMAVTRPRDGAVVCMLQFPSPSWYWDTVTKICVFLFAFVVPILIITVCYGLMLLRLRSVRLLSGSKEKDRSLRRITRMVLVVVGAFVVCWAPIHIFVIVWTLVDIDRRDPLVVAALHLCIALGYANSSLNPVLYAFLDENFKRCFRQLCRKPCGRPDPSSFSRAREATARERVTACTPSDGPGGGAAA
As to the kind of experiment: Radioligand binding, human δ-opioid (DOP) membranes, FlashPlate, [3H]-Bremazocine. In short, it runs like this:
as §1

The target of the next assay is T10, Mouse urotensin (mUR2) (Mus musculus, UniProt Q8VIH9).
T10 construct: purchased Perkin Elmer Biosignal
T10 sequence (Q8VIH9 1-385): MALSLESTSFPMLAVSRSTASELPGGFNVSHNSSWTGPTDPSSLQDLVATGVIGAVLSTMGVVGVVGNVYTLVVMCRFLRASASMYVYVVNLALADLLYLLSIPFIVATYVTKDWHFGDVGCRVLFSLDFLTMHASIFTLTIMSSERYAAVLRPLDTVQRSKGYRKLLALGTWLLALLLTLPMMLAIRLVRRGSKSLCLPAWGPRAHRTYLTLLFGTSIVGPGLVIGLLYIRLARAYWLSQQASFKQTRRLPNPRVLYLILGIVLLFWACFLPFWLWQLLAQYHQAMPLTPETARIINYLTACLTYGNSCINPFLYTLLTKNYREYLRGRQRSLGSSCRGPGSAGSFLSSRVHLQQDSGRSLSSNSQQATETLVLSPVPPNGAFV
As to the kind of experiment: Radioligand binding, mouse urotensin mUR2 membranes, FlashPlate, [125I]-Urotensin II. In short, it runs like this:
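Cloned mouse urotensin (mUR2) receptor membranes from Perkin Elmer Biosignal were immobilized in FlashPlate microplates using a proprietary coating. Each well got 19.5 μl buffer, then 0.5 μl of DMSO, reference ligand, or compound. Adding 5 μl of [125I]-Urotensin II, diluted to 5× final concentration in binding buffer, started binding. Plates were sealed with TopSeal-A and incubated 1 hour at room temperature in the dark. Wells were counted for 30 seconds each on a TopCount after a 60-second delay, and percentage inhibition was calculated.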

A further assay concerns the target T11, Human opioid (ORL1) (Homo sapiens, UniProt P41146).
T11 construct: purchased Perkin Elmer Biosignal
As to the kind of experiment: Radioligand binding, human opioid ORL1 membranes, FlashPlate, [125I]-Nociceptin. In short, it runs like this: as §1

T3 sequence (P33032 whole entry): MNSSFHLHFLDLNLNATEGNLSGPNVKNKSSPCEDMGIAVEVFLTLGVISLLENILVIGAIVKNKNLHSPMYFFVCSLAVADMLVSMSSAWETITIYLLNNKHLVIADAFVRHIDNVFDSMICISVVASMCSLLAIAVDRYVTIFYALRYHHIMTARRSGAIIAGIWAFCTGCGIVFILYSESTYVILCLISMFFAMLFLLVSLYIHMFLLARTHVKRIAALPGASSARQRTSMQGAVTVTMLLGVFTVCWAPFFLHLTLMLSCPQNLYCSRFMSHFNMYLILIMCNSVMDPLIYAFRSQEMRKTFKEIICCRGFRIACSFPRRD
T6 sequence (P35372 whole entry): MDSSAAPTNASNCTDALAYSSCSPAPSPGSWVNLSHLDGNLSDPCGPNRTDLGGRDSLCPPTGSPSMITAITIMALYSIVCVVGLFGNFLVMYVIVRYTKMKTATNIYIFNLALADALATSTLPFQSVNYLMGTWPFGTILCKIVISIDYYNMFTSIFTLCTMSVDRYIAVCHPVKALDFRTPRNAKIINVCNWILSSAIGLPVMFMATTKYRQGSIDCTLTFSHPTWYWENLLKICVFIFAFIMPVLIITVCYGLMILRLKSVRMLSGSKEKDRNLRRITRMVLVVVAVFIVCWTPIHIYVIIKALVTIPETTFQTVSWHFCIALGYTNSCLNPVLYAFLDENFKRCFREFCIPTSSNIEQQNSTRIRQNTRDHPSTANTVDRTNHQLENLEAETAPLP
T11 sequence (P41146 whole entry): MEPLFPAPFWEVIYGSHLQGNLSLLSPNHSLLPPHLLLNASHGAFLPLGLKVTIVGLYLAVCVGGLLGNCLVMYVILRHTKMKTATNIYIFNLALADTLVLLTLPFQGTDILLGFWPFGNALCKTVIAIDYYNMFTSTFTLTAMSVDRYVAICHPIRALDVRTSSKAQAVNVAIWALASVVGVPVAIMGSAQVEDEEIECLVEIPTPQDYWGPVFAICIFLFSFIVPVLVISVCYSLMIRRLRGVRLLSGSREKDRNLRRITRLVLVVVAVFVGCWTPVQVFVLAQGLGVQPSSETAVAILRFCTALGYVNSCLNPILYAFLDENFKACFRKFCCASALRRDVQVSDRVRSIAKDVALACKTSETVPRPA
T1 sequence (P32245 whole entry): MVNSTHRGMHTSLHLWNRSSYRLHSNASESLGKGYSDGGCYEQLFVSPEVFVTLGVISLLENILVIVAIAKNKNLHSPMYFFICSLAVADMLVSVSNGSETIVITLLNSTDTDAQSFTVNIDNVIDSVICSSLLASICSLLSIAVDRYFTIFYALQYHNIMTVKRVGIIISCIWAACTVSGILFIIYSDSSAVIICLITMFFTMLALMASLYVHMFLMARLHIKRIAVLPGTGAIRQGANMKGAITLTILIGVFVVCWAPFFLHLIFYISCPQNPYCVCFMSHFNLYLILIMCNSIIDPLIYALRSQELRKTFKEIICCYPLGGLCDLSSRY

As to `CSC1OC(COCc2ccccc2)C(O)C(OCc2ccc(Cl)cc2)C1NC(=O)CCN` (centres unmarked) [compound 266], the “A4: inhibition of radioligand binding” value at Human Melanocortin (MC4) ([125I]-NDP-αMSH, FlashPlate) is recorded as “− (“−” indicates less than 50% inhibition at 10 μM)”. The “A2: inhibition of radioligand binding” value at Human κ-Opioid (KOP) ([3H]-Diprenorphine, filtration) was “− (“−” indicates less than 50% inhibition at 10 μM)”. Moreover, on Human melanocortin (MC5) ([125I]-NDP-αMSH, FlashPlate), the “A5: inhibition of radioligand binding” value is recorded as “− (“−” indicates less than 50% inhibition at 10 μM)”. For the same compound, the “A6: inhibition of radioligand binding” value in assay [1] ([125I]-S36057, FlashPlate) is “− (“−” indicates less than 50% inhibition at 10 μM)”. The “A8: inhibition of radioligand binding” value at Human neurokinin (NK1) ([125I]-Substance P, filtration) was “+ (“+” indicates greater than 50% inhibition at 10 μM)”. On Human μ-opioid (MOP) ([3H]-Naloxone, FlashPlate), the “A7: inhibition of radioligand binding” value is on record as “− (“−” indicates less than 50% inhibition at 10 μM)”. On Human Melanocortin (MC3) ([125I]-NDP-αMSH, FlashPlate), the “A3: inhibition of radioligand binding” value is on record as “− (“−” indicates less than 50% inhibition at 10 μM)”. In addition, in [2] ([125I]-PYY, FlashPlate), the “A9: inhibition of radioligand binding” value was “− (“−” indicates less than 50% inhibition at 10 μM)”. For the same compound, the “A1: inhibition of radioligand binding” value on Human δ-opioid (DOP) ([3H]-Bremazocine, FlashPlate) is recorded as “− (“−” indicates less than 50% inhibition at 10 μM)”. In addition, the “A11: inhibition of radioligand binding” value on Mouse urotensin (mUR2) ([125I]-Urotensin II, FlashPlate) is “− (“−” indicates less than 50% inhibition at 10 μM)”. Besides, the “A10: inhibition of radioligand binding” value on Human opioid (ORL1) ([125I]-Nociceptin, FlashPlate) is “− (“−” indicates less than 50% inhibition at 10 μM)”.

Take `COC1O[C@H](COCC(=O)O)[C@@H](O)[C@H](OCc2ccccc2)[C@H]1NC(=O)c1cnc[nH]1` (some centres unmarked) [compound 128]: the “A4 radioligand binding, percentage inhibition” value at Human Melanocortin (MC4) ([125I]-NDP-αMSH) is recorded as “− (“−” indicates less than 50% inhibition at 10 μM)”. For the same compound, the “A2 radioligand binding, percentage inhibition” value on Human κ-Opioid (KOP) ([3H]-Diprenorphine) was “− (“−” indicates less than 50% inhibition at 10 μM)”. Further, at Human melanocortin (MC5) ([125I]-NDP-αMSH), the “A5 radioligand binding, percentage inhibition” value is reported as “− (“−” indicates less than 50% inhibition at 10 μM)”. Also, the “A6 radioligand binding, percentage inhibition” value in assay [1] ([125I]-S36057) is recorded as “− (“−” indicates less than 50% inhibition at 10 μM)”. In addition, the “A8 radioligand binding, percentage inhibition” value on Human neurokinin (NK1) ([125I]-Substance P) is on record as “+ (“+” indicates greater than 50% inhibition at 10 μM)”. The “A7 radioligand binding, percentage inhibition” value at Human μ-opioid (MOP) ([3H]-Naloxone) was “− (“−” indicates less than 50% inhibition at 10 μM)”. Moreover, the “A3 radioligand binding, percentage inhibition” value at Human Melanocortin (MC3) ([125I]-NDP-αMSH) was “− (“−” indicates less than 50% inhibition at 10 μM)”. Also, the “A9 radioligand binding, percentage inhibition” value in [2] ([125I]-PYY) is “− (“−” indicates less than 50% inhibition at 10 μM)”. Further, the “A1 radioligand binding, percentage inhibition” value on Human δ-opioid (DOP) ([3H]-Bremazocine) is on record as “− (“−” indicates less than 50% inhibition at 10 μM)”. For the same compound, the “A11 radioligand binding, percentage inhibition” value on Mouse urotensin (mUR2) ([125I]-Urotensin II) is reported as “− (“−” indicates less than 50% inhibition at 10 μM)”. The “A10 radioligand binding, percentage inhibition” value at Human opioid (ORL1) ([125I]-Nociceptin) is listed as “− (“−” indicates less than 50% inhibition at 10 μM)”.

Consider `NCCCC(=O)NC1C(OCc2ccc3ccccc3c2)OC(COCc2ccccc2)C(O)C1OCc1ccc(Cl)cc1` (centres unmarked) [compound 391], for which the “A4: inhibition of radioligand binding” value at Human Melanocortin (MC4) ([125I]-NDP-αMSH, human MC4 membranes, 10 µM) is given as “+ (“+” indicates greater than 50% inhibition at 10 μM)”. At Human κ-Opioid (KOP) ([3H]-Diprenorphine, human KOP membranes), the “A2: inhibition of radioligand binding” value is “− (“−” indicates less than 50% inhibition at 10 μM)”. Moreover, the “A5: inhibition of radioligand binding” value at Human melanocortin (MC5) ([125I]-NDP-αMSH, human MC5 membranes, 10 µM) is “− (“−” indicates less than 50% inhibition at 10 μM)”. In addition, in [1] ([125I]-S36057, human MCH1 membranes, 10 µM), the “A6: inhibition of radioligand binding” value is on record as “− (“−” indicates less than 50% inhibition at 10 μM)”. In addition, the “A8: inhibition of radioligand binding” value on Human neurokinin (NK1) ([125I]-Substance P, human NK1 membranes) was “+ (“+” indicates greater than 50% inhibition at 10 μM)”. In addition, the “A7: inhibition of radioligand binding” value at Human μ-opioid (MOP) ([3H]-Naloxone, human MOP membranes, 10 µM) is “− (“−” indicates less than 50% inhibition at 10 μM)”. In addition, the “A3: inhibition of radioligand binding” value at Human Melanocortin (MC3) ([125I]-NDP-αMSH, human MC3 membranes) was “− (“−” indicates less than 50% inhibition at 10 μM)”. Further, in assay [2] ([125I]-PYY, human NPY-Y1 membranes), the “A9: inhibition of radioligand binding” value is listed as “− (“−” indicates less than 50% inhibition at 10 μM)”. Also, the “A1: inhibition of radioligand binding” value at Human δ-opioid (DOP) ([3H]-Bremazocine, human DOP membranes) is listed as “− (“−” indicates less than 50% inhibition at 10 μM)”. On Mouse urotensin (mUR2) ([125I]-Urotensin II, mouse mUR2 membranes), the “A11: inhibition of radioligand binding” value is “− (“−” indicates less than 50% inhibition at 10 μM)”. Further, the “A10: inhibition of radioligand binding” value on Human opioid (ORL1) ([125I]-Nociceptin, human ORL1 membranes, 10 µM) was “− (“−” indicates less than 50% inhibition at 10 μM)”.

Consider `COC[C@H]1OC(OCc2ccc(Cl)cc2)[C@H](NC(=O)CCCNC(=N)N)[C@@H](OCc2ccc(-c3ccccc3)cc2)[C@@H]1O` (some centres unmarked) [compound 30], for which the “A4 radioligand binding inhibition” value at Human Melanocortin (MC4) (human melanocortin MC4 membranes) is listed as “+ (“+” indicates greater than 50% inhibition at 10 μM)”. At Human κ-Opioid (KOP) (human κ-opioid (KOP) membranes), the “A2 radioligand binding inhibition” value was “− (“−” indicates less than 50% inhibition at 10 μM)”. Moreover, the “A5 radioligand binding inhibition” value on Human melanocortin (MC5) (human melanocortin MC5 membranes) was “+ (“+” indicates greater than 50% inhibition at 10 μM)”. Moreover, the “A6 radioligand binding inhibition” value in assay [1] (human MCH1 membranes) was “+ (“+” indicates greater than 50% inhibition at 10 μM)”. The “A8 radioligand binding inhibition” value at Human neurokinin (NK1) (human neurokinin NK1 membranes) was “+ (“+” indicates greater than 50% inhibition at 10 μM)”. Besides, the “A7 radioligand binding inhibition” value at Human μ-opioid (MOP) (human μ-opioid (MOP) membranes) is listed as “+ (“+” indicates greater than 50% inhibition at 10 μM)”. For the same compound, the “A3 radioligand binding inhibition” value on Human Melanocortin (MC3) (human melanocortin MC3 membranes) was “+ (“+” indicates greater than 50% inhibition at 10 μM)”. Besides, the “A9 radioligand binding inhibition” value in [2] (human NPY-Y1 membranes) is given as “− (“−” indicates less than 50% inhibition at 10 μM)”. In addition, the “A1 radioligand binding inhibition” value on Human δ-opioid (DOP) (human δ-opioid (DOP) membranes) is listed as “− (“−” indicates less than 50% inhibition at 10 μM)”. Also, on Mouse urotensin (mUR2) (mouse urotensin mUR2 membranes), the “A11 radioligand binding inhibition” value is reported as “− (“−” indicates less than 50% inhibition at 10 μM)”. Also, the “A10 radioligand binding inhibition” value on Human opioid (ORL1) (human ORL1 membranes) is listed as “− (“−” indicates less than 50% inhibition at 10 μM)”.
